This is an account of results in patent US10968218B2, “Tetrahydropyridopyrimidines for the treatment and prophylaxis of hepatitis B virus infection” (Hoffmann-La Roche Inc., priority 2016, dated 2021).

One experiment concerns HBsAg. The experiment can be described thus: HBsAg assay (CLIA of secreted HBsAg in HepG2.2.15 culture supernatant). It is filed as cell-based, HBV. To be noted: Hepatitis B virus. On the procedure: (§1) HepG2.2.15 cells (Acs et al. Proc Natl Acad Sci USA, 84, (1987), 4641-4), a constitutively HBV-expressing cell line were cultured in DMEM+Glutamax-I medium (Invitrogen, Carlsbad, Calif., USA), supplemented with 10% fetal bovine serum (Invitrogen) and G418 (Invitrogen) at a final concentration of 200 mg/L and maintained in 5% CO2 at 37° C.
HepG2.2.15 cells were seeded in duplicate into white, 96-well plates at 1.5×10^4 cells/well. The cells were treated with a three-fold serial dilution series of the compounds in DMSO. The final DMSO concentration in all wells was 1% and DMSO was used as no drug control.
The HBsAg chemiluminescence immunoassay (CLIA) kit (Autobio Diagnostics Co., Zhengzhou, China, Catalog number: CL0310-2) was used to measure the levels of secreted HBV antigens semi-quantitatively. For the detection 50 μL/well culture supernatant was used and HBsAg was quantified using HBsAg chemiluminescence immunoassay (CLIA) kit (Autobio Diagnostics Co., Zhengzhou, China, Catalog number: CL0310-2), 50 μL of the supernatant was transferred to the CLIA assay plate and 50 μL of enzyme conjugate reagent was added into each well. The plates were sealed and gently agitated for 1 hour at room temperature. The supernatant-enzyme-mixture was discarded and wells were washed 6 times with 300 μL of PBS. The residual liquid was removed by plating the CLIA plate right side down on absorbent tissue paper. 25 μL of substrates A and B were added to each well. Luminance was measured using a luminometer (Mithras LB 940 Multimode Microplate Reader) after 10 minutes incubation. Dose-response curves were generated and the IC50 value was extrapolated by using the E-WorkBook Suite (ID Business Solutions Ltd., Guildford, UK). The IC50 was defined as the compound concentration at which HBsAg secretion was reduced by 50% compared to the no drug control.
The compounds according to formula I were tested for their capacity to inhibit HBsAg as described herein.

The test system of another experiment is HBV DNA. The experiment can be described thus: HBV DNA assay (real-time qPCR/TaqMan of extracellular HBV DNA, HepG2.2.15 cells). To be noted: Hepatitis B virus, 144 h; Anti HBV DNA production activity in HepG2.2.15 cells, supernatant, six days after treatment. It is filed as cell-based. On the procedure:
as §1
The assay employs real-time qPCR (TaqMan) to directly measure extracellular HBV DNA copy number in the cell supernatant. HepG2.2.15 cells were plated in 96-well microtiter plates before treatment with complete medium (DMEM, Glutamax, 10% FBS, 1% Penicillin/Streptomycin, 250 μg/mL Genetycin, final DMSO concentration is 1%). Only the interior wells were utilized to reduce “edge effects” observed during cell culture, the exterior wells were filled with complete medium to help minimize sample evaporation. The HepG2.2.15 cells were treated 1 h later with various concentrations of a test compound in duplicate (top concentration used at 5 μM, 2 μM or 0.5 μM according to the HBsAg IC50 observed, with 1/3 successive dilutions (total of 10 dilutions). Six days following the initial administration of the test compound, the cell culture supernatant was collected; DNA extraction was performed by automated system (Magnapure) and then used in a real-time qPCR/TaqMan assay to determine HBV DNA copy numbers. Antiviral activity was calculated from the reduction in HBV DNA levels (IC50). The compounds of the present invention were tested for their capacity to inhibit HBV DNA as described herein.
(In general: Real-time PCR tracks product formation cycle by cycle.)

pIC50: −log10 of the molar value.

Consider `CC1c2cnc(-c3cscn3)nc2CCN1c1cc(F)nc(N2CCN(S(C)(=O)=O)CC2)c1` (centres unmarked) [Example 20, 4-[6-[2-fluoro-6-(4-methylsulfonylpiperazin-1-yl)-4-pyridyl]-5-methyl-7,8-dihydro-5H-pyrido[4,3-d]pyrimidin-2-yl]thiazole], for which the pIC50 in the experiment on HBsAg was 7.89; in the experiment on HBV DNA it was 7.69. As for `COc1cc(F)nc(N2CCc3nc(-c4cscn4)ncc3C2C)c1` (centres unmarked) [Example 5, 4-[6-(6-Fluoro-4-methoxy-2-pyridyl)-5-methyl-7,8-dihydro-5H-pyrido[4,3-d]pyrimidin-2-yl]thiazole], the figures for the negative-log IC50 (pIC50) with HBsAg and in the experiment on HBV DNA were 7.64 and 8.06, respectively.

Take `COc1cc(F)nc(N2CCc3nc(-c4ncn[nH]4)ncc3C2C)c1` (centres unmarked) [Example 43, 6-(6-Fluoro-4-methoxy-2-pyridyl)-5-methyl-2-(1H-1,2,4-triazol-5-yl)-7,8-dihydro-5H-pyrido[4,3-d]pyrimidine]: the figures for the pIC50 in the experiment with HBsAg and in the experiment on HBV DNA were 8.10 and 8.77, respectively. Turning to `COc1cc(F)nc(N2CCc3nc(-c4ncc[nH]4)ncc3C2C)c1` (centres unmarked) [Example 26, 6-(6-Fluoro-4-methoxy-2-pyridyl)-2-(1H-imidazol-2-yl)-5-methyl-7,8-dihydro-5H-pyrido[4,3-d]pyrimidine], the pIC50 was 7.51 with HBsAg and 8.24 in the experiment with HBV DNA. Consider `CC1c2cnc(-c3cscn3)nc2CCN1c1cc(OCC(F)F)cc(F)n1` (centres unmarked) [Example 35, 4-[6-[4-(2,2-difluoroethoxy)-6-fluoro-2-pyridyl]-5-methyl-7,8-dihydro-5H-pyrido[4,3-d]pyrimidin-2-yl]thiazole], for which, in the experiment with HBsAg, the pIC50 is 7.41. Consider `CC1c2cnc(-c3cscn3)nc2CCN1c1cc(N(C)C)cc(F)n1` (centres unmarked) [Example 11, 2-Fluoro-N,N-dimethyl-6-(5-methyl-2-thiazol-4-yl-7,8-dihydro-5H-pyrido[4,3-d]pyrimidin-6-yl)pyridin-4-amine], for which the pIC50 in the experiment with HBsAg was 7.59. In turn, `CC1c2cnc(-c3cscn3)nc2CCN1c1cc(F)nc(OCCCN2CCCC2=O)c1` (centres unmarked) [Example 40, 1-[3-[[6-fluoro-4-(5-methyl-2-thiazol-4-yl-7,8-dihydro-5H-pyrido[4,3-d]pyrimidin-6-yl)-2-pyridyl]oxy]propyl]pyrrolidin-2-one] showed a pIC50 in the experiment with HBsAg of 6.65. In the experiment on HBsAg, `COc1cc(F)nc(N2CCc3nc(-c4csc(C)n4)ncc3C2C)c1` (centres unmarked) [Example 15, 4-[6-(6-fluoro-4-methoxy-2-pyridyl)-5-methyl-7,8-dihydro-5H-pyrido[4,3-d]pyrimidin-2-yl]-2-methyl-thiazole] gave a negative logarithm of the IC50 (pIC50) of 5.82.

`COc1cc(F)nc(N2CCc3nc(-n4ccnn4)ncc3C2C)c1` (centres unmarked) [Example 2, 6-(6-Fluoro-4-methoxy-2-pyridyl)-5-methyl-2-(triazol-1-yl)-7,8-dihydro-5H-pyrido[4,3-d]pyrimidine]: the pIC50 in the experiment with HBsAg is 4.64. Regarding `CC1c2cnc(-c3cscn3)nc2CCN1c1cc(OCC2CCOC2)cc(F)n1` (centres unmarked) [Example 38, 4-[6-[6-fluoro-4-(tetrahydrofuran-3-ylmethoxy)-2-pyridyl]-5-methyl-7,8-dihydro-5H-pyrido[4,3-d]pyrimidin-2-yl]thiazole], in the experiment with HBsAg, the pIC50 is 7.70. `CC1c2cnc(-c3cscn3)nc2CCN1c1cc(F)cc(OCC2CCOC2)n1` (centres unmarked) [Example 39, 4-[6-[4-fluoro-6-(tetrahydrofuran-3-ylmethoxy)-2-pyridyl]-5-methyl-7,8-dihydro-5H-pyrido[4,3-d]pyrimidin-2-yl]thiazole] had a pIC50 with HBsAg of 6.86. The compound `COc1cc(F)nc(N2CCc3nc(-c4cc[nH]n4)ncc3C2C)c1` (centres unmarked) [Example 27, 6-(6-Fluoro-4-methoxy-2-pyridyl)-5-methyl-2-(1H-pyrazol-3-yl)-7,8-dihydro-5H-pyrido[4,3-d]pyrimidine] had a pIC50 in the experiment with HBsAg of 6.64. For the compound `COc1cc(F)nc(N2CCc3nc(-c4ncco4)ncc3C2C)c1` (centres unmarked) [Example 4, 2-[6-(6-Fluoro-4-methoxy-2-pyridyl)-5-methyl-7,8-dihydro-5H-pyrido[4,3-d]pyrimidin-2-yl]oxazole], the pIC50 in the experiment on HBsAg was 6.50.

Broadly, the pIC50 is the negative decadic logarithm of the IC50, by convention in mol/L.
